# Results reported in US11453697B1, “Cyclic di-nucleotide compounds as sting agonists” (Merck Sharp & Dohme Corp., priority 2015, dated 2022).
# System: IFN-β secretion in THP1 cells
# Assay: IFN-β secretion in THP1 cell culture (5 h)
# Assay type: cell-based, human
# Conditions: not given
# Procedure: The ability of compounds to stimulate the secretion of interferon-beta from THP1 cells was measured using a human IFN-β AlphaLISA kit (Perkin Elmer, Cat. No. AL265F). The basic protocol is as follows:
# The cell viability and count was ascertained using a Beckman Coulter V-Cell XR cell counter. The cells suspension was centrifuged at 200×g for 5 min at RT. […] Subsequent liquid transfers were performed using either a Matrix electronic multichannel pipette or an Agilent Bravo Automated Liquid Handling Platform.
# The assay was started by dispensing 40 μL of the previously prepared cell suspension into the wells of the plate containing compounds. After 5 h incubation at 37° C., 5% CO2 in a humidified atmosphere, the plate of cells and compounds was centrifuged at 200×g for 5 min at RT. […] To these supernatant-containing wells was added 10 μL of 5× Anti-Analyte Acceptor beads (50 μg/mL of AlphaLISA HiBlock Buffer) and incubated for 30 min at RT while shaking on an orbital plate shaker. To each well was added 10 μL of 5× Biotinylated Antibody Anti-analyte (5 nM in AlphaLISA HiBlock Buffer) and incubated on an orbital plate shaker for 60 min at RT or overnight at 4° C. To each well was added 25 μL of 2× SA-Donor beads (80 μg/mL in AlphaLISA HiBlock Buffer) and incubated for 30-45 min at RT in the dark while shaking on an orbital plate shaker. The plate was then read on a Perkin Elmer Envision (λex=680 nm, λem=[…]). The percent effect of the AlphaLISA signal at each compound concentration was calculated based on 30 uM cGAMP positive controls and 0.3% DMSO negative controls. The plot of percent effect versus the log of compound concentration was fit with a 4-parameter concentration response equation to calculate EC50 values.
# Compounds of the disclosure were evaluated for IFN-β secretion in THP1 cell culture as described above.
row,SMILES,% Effect at 30 μM relative to 2′3′-cGAMP
1,"Nc1nc2c(ncn2[C@@H]2O[C@@H]3COP(=O)(O)OC4C(F)[C@H](n5cnc6c(N)ncnc65)O[C@@H]4COP(=O)(O)OC2C3F)c(=O)[nH]1 (stereo in doubt) [Example 23, 2-amino-9-[(5R,7R,8S,12aR,14R,15R,15aR,16R)-14-(6-amino-9H-purin-9-yl)-15,16-difluoro-2,10-dihydroxy-2,10-dioxidooctahydro-12H-5,8-methanofuro[3,2-l][1,3,6,9,11,2,10]pentaoxadiphosphacyclotetradecin-7-yl]-1,9-dihydro-6H-purin-6-one]",125%
2,"Nc1nc2c(ncn2[C@@H]2O[C@@H]3COP(=O)(O)OC4C(F)[C@H](n5cnc6c(N)ncnc65)O[C@@H]4COP(=O)(O)OC2C3O)c(=O)[nH]1 (stereo in doubt) [Example 2, (5R,7R,8R,12aR,14R,15R,15aR,16R)-7-(2-amino-6-oxo-1,6-dihydro-9H-purin-9-yl)-14-(6-amino-9H-purin-9-yl)-15-fluoro-16-hydroxyoctahydro-12H-5,8-methanofuro[3,2-l] [1,3,6,9,11,2,10]pentaoxadiphosphacyclotetradecine-2,10-diolate 2,10-dioxide]",148%
3,"Nc1nc2c(ncn2[C@@H]2O[C@@H]3COP(=O)(O)O[C@H]4[C@@H](O)[C@H](n5cnc6c(N)ncnc65)O[C@@H]4COP(=O)(O)O[C@@H]2[C@H]3F)c(=O)[nH]1 [Example 52, 2-amino-9-[(5R,7R,8S,12aR,14R,15R,15aS,16S)-14-(6-amino-9H-purin-9-yl)-16-fluoro-2,10,15-trihydroxy-2,10-dioxidooctahydro-12H-5,8-methanofuro[3,2-l][1,3,6,9,11,2,10]pentaoxadiphosphacyclotetradecin-7-yl]-1,9-dihydro-6H-purin-6-one]",143%
4,"Nc1nc2c(ncn2[C@@H]2O[C@@H]3COP(=O)(O)OC4[C@@H](COP(=O)(O)OC2C3O)O[C@@H](n2cnc3c(N)ncnc32)[C@H]4F)c(=O)[nH]1 (stereo in doubt) [Example 7, (5R,7R,8R,12aR,14R,15S,15aR,16R)-7-(2-amino-6-oxo-1,6-dihydro-9H-purin-9-yl)-14-(6-amino-9H-purin-9-yl)-15-fluoro-16-hydroxyoctahydro-12H-5,8-methanofuro[3,2-l][1,3,6,9,11,2,10] pentaoxadiphosphacyclotetradecine-2,10-diolate 2,10-dioxide]",112%
5,"Nc1nc2c(ncn2[C@@H]2O[C@@H]3COP(=O)(O)O[C@H]4[C@@H](O)[C@H](n5cnc6c(N)ncnc65)O[C@@H]4COP(=O)(O)O[C@@H]2[C@H]3O)c(=O)[nH]1 [Example 39, 2-amino-9-[(5R,7R,8R,12aR,14R,15R,15aS,16S)-14-(6-amino-9H-purin-9-yl)-2,10,15,16-tetrahydroxy-2,10-dioxidooctahydro-12H-5,8-methanofuro[3,2-l][1,3,6,9,11,2,10]pentaoxadiphosphacyclotetradecin-7-yl]-1,9-dihydro-6H-purin-6-one]",74%

# Same assay, conditions: IFN-β secretion in THP1 cell culture, 5 h; compound at 30 μM; percent activation relative to 2′3′-cGAMP
row,SMILES,% Effect at 30 μM relative to 2′3′-cGAMP
1,"Nc1nc2c(ncn2[C@@H]2O[C@@H]3COP(=O)(S)OC4[C@@H](COP(=O)(S)O[C@H]2C3O)O[C@@H](n2cnc3c(N)ncnc32)[C@H]4F)c(=O)[nH]1 (single isomer, unassigned) [Example 83]",133%
2,"Nc1nc2c(ncn2[C@@H]2S[C@@H]3COP(=O)(O)O[C@H]4[C@H](F)[C@H](n5cnc6c(=O)[nH]cnc65)O[C@@H]4COP(=O)(S)O[C@@H]2[C@@H]3O)c(=O)[nH]1 (stereo partly drawn) [Example 339, 2-amino-9-[(5R,7R,8R,12aR,14R,15S,15aR,16S)-15-fluoro-2,16-dihydroxy-2,10-dioxido-14-(6-oxo-1,6-dihydro-9H-purin-9-yl)-10-sulfanyloctahydro-12H-5,8-methanofuro[3,2-l][1,3,9,11,6,2,10]tetraoxathiadiphosphacyclotetradecin-7-yl]-1,9-dihydro-6H-purin-6-one]",175%
3,"Nc1nc2c(ncn2[C@@H]2O[C@@H]3COP(=O)(O)O[C@H]4[C@H](F)[C@H](n5nnc6c(=O)[nH]cnc65)O[C@@H]4COP(=O)(S)O[C@@H]2[C@@H]3F)c(=O)[nH]1 (single isomer, unassigned) [Example 346]",182%
4,"Nc1nc2c(ncn2[C@@H]2O[C@@H]3COP(=O)(O)O[C@H]4[C@H](F)[C@H](n5cnc6c(N)ncnc65)O[C@@H]4COP(O)(=S)O[C@@H]2[C@@H]3F)c(=O)[nH]1 (single isomer, unassigned) [Example 273]",85%
5,"Nc1nc2c(ncn2[C@@H]2O[C@@H]3CO[P@@](=O)(S)O[C@H]4[C@H](F)[C@H](n5cnc6c(N)ncnc65)O[C@@H]4CO[P@@](=O)(S)O[C@@H]2[C@H]3F)c(=O)[nH]1 (single isomer, unassigned) [Example 144]",114%
6,"Nc1nc2c(ncn2[C@@H]2O[C@@H]3COP(O)(=S)O[C@H]4[C@@H](F)[C@H](n5cnc6c(N)ncnc65)O[C@@H]4COP(O)(=S)O[C@@H]2[C@@H]3F)c(=O)[nH]1 (stereo partly drawn) [Example 260, 2-amino-9-[(5R,7R,8S,12aR,14R,15R,15aR,16R)-14-(6-amino-9H-purin-9-yl)-15,16-difluoro-2,10-dihydroxy-2,10-disulfidooctahydro-12H-5,8-methanofuro[3,2-l][1,3,6,9,11,2,10]pentaoxadiphosphacyclotetradecin-7-yl]-1,9-dihydro-6H-purin-6-one]",113%
7,"Nc1nc2c(ncn2[C@@H]2O[C@@H]3COP(=O)(S)O[C@H]4[C@@H](O)[C@H](n5ccc6c(N)ncnc65)O[C@@H]4COP(=O)(S)O[C@@H]2C3)c(=O)[nH]1 (stereo partly drawn) [Example 79, 2-amino-9-[(5S,7R,8R,12aR,14R,15R,15aS)-14-(4-amino-7H-pyrrolo[2,3-d]pyrimidin-7-yl)-15-hydroxy-2,10-dioxido-2,10-disulfanyloctahydro-12H-5,8-methanofuro[3,2-l][1,3,6,9,11,2,10]pentaoxadiphosphacyclotetradecin-7-yl]-1,9-dihydro-6H-purin-6-one]",145%
8,"Nc1nc2c(ncn2[C@@H]2O[C@@H]3COP(O)(=S)O[C@H]4[C@H](F)[C@H](n5cnc6c(N)ncnc65)O[C@@H]4COP(O)(=S)O[C@@H]2[C@@H]3F)c(=O)[nH]1 (single isomer, unassigned) [Example 244]",96%
9,"Nc1nc2c(ncn2[C@@H]2O[C@@H]3COP(=O)(S)OC4[C@@H](COP(=O)(S)OC2C3O)O[C@@H](n2cnc3c(N)ncnc32)[C@H]4F)c(=O)[nH]1 (single isomer, unassigned) [Example 90]",117%
10,"Nc1nc2c(ncn2[C@@H]2O[C@@H]3CO[P@@](=O)(S)OC4[C@@H](CO[P@@](=O)(S)O[C@H]2C3O)O[C@@H](n2cnc3c(N)ncnc32)[C@H]4F)c(=O)[nH]1 (single isomer, unassigned) [Example 89]",119%
11,"Nc1nc2c(nnn2[C@@H]2O[C@@H]3COP(=O)(S)O[C@H]4[C@H](F)[C@H](n5nnc6c(=O)[nH]cnc65)O[C@@H]4COP(=O)(S)O[C@@H]2[C@@H]3F)c(=O)[nH]1 (single isomer, unassigned) [Example 345]",144%
12,"Nc1nc2c(ncn2[C@@H]2O[C@@H]3COP(=O)(S)OC4[C@@H](COP(=O)(S)OC2C3O)O[C@@H](n2cnc3c(N)ncnc32)[C@H]4F)c(=O)[nH]1 (single isomer, unassigned) [Example 92]",62%
